This note sets out measurements from patent US20260055110A1 (Azura Ophthalmics Ltd., priority 2021, published 2026).

The nature of series [1]: Aqueous Hydrolysis Stability Assay. As to conditions: DPBS pH 7.4, 37° C.
Method: Example 2: Aqueous Hydrolysis Stability Assay
Determination of aqueous stability of the test compounds was performed using UPLC-MS. A test compound 10 mM stock solution was prepared in DMSO. 10 μL of the DMSO stock solution was dissolved in 990 μL of DPBS pH 7.4 buffer to prepare a 100 μM stock. A further dilution was made by dissolving 75 μl of 100 μM stock into 225 μL of DPBS. Final DMSO concentration is 0.25%. The solution is kept at 37° C. and injected without delay into the LCMS (Waters Xevo TQ-). Additional injections were performed at appropriate time points.
Half-life (T1/2) of the parent conjugate was calculated using the peak area or measured concentration of the parent conjugate at each time point in the linear region of the log—linear plot.
For another series, the system named is Rabbit Cornea Esterase. Briefly: Rabbit Cornea Homogenate Stability Assay (Rabbit Cornea Esterase Assay). The format is in vitro ADME. Here is the method:
Example 1: Rabbit Cornea Homogenate Stability Assay […]
Three to four rabbit corneas (e.g., New Zealand Whites (NZW) or Dutch Belted (DB)) of approx. 50 mg each were sliced and scraped with a scalpel and tweezers until reduced to small (1-3 mm), thin pieces. These were transferred into a glass vial containing approximately 2 mL of cold DPBS pH 7.4 buffer.
Sample was cooled intermittently on ice and shear homogenized for 3 minutes, then centrifuged for 3 min at 13,000 g. The supernatant was pipetted off into a vial, and total protein concentration determined at 280 nm. Sample was stored at −78° C.
10 mM Compound DMSO stocks were diluted to 10 μM in a glass vial: 10 μL of 10 mM Compound stock was added to 9,990 μl 50 mM DPBS, pH 7.4 buffer. Esterase homogenate was diluted to 300 ng/μl and 900 ng/μL in DPBS.
A heater shaker was set to 37° C. Into a suitable 96 well plate (Run Plate), 70 μL of 300 or 900 ng/μl esterase homogenate was pipetted into two rows as compounds were analyzed in duplicate (2 min, 5 min, 10 min, 20 min and 45 min). The plate was sealed and then warmed at 37° C. for 5 min.
Two 96 deep-well plates were put on ice (Kill Plates). To these, 990 μL of 50:50 MeCN—H2O were added to required rows, labelled 0 min 2 min, 5 min, 10 min, 20 min and 45 min. The plates were covered to minimize evaporation.
To both rows of the Run Plate, 70 μL of 10 μM compound solution was added. At the appropriate time point, 10 μL of the assay mixture was added to the matching kill plate well containing 990 μL of 50:50 cold MeCN—H2O. Samples were analyzed as soon as practicable by UPLC-MS (Waters Xevo TQ-S).
A heater shaker was set to 37° C. Into a suitable 96 well plate (Run Plate), 80 μL of 300 or 900 ng/μL esterase homogenate was pipetted into two rows as compounds were analyzed in duplicate (2 min, 5 min, 10 min, 20 min and 45 min). The plate was sealed and then warmed at 37° C. for 5 min.
Two 96 shallow-well plates were placed on ice (Kill Plates). To these, 180 μL of 60:40 MeCN-H2O+0.1% acetic acid are added to required rows. The plates were sealed to minimize evaporation.
To both rows of the Run Plate, 80 μL of 10 μM compound solution was added. At the appropriate time point, 20 μL of the assay mixture was added to the matching kill plate well containing 180 μL of 60:40 cold MeCN-H2O+0.1% acetic acid. For lipoic acid analysis, samples were analyzed as soon as practicable by LCMS (Waters Xevo TQ-S). For parent conjugate and parent analysis the samples are diluted further 1 in 10: 20 μL supernatant is added to 180 μL of 50:50 MeCN—H2O.

The mark [2] stands for this setting: rabbit cornea homogenate 0.15 mg/mL total protein, NZW, 37° C.
Setting [3] is: rabbit cornea homogenate 0.45 mg/mL total protein, NZW, 37° C.
Setting [4] is: rabbit cornea homogenate 0.15 mg/mL total protein, DB, 37° C.
Where [5] appears, read: rabbit cornea homogenate 0.45 mg/mL total protein, DB, 37° C.

Consider `C=CC(=O)N1C[C@H](Nc2ncnc3c2ccn3COC(=O)CCCC[C@@H]2CCSS2)CC[C@@H]1C` [Compound 12], for which, in series [1] (t = 44), the “Aqueous Stability (DPBS) % parent released after t min” value is on record as “A (t = 44) (<25%)”. Also, in the series on Rabbit Cornea Esterase (setting [2]), the “Esterase (0.15 mg/mL) % parent released after 45 min” value is “B (NZW) (25% to 50%)”. Further, the “Esterase (0.45 mg/mL) % parent released after 45 min” value in the series on Rabbit Cornea Esterase (setting [3]) was “B (NZW) (25% to 50%)”.

As for `CNS(=O)(=O)CC1CCC(N(C)c2ncnc3c2ccn3COC(=O)CCCC[C@@H]2CCSS2)CC1` (stereo partly shown) [Compound 31], the “Aqueous Stability (DPBS) % parent released after t min” value in series [1] (t = 44) is “A (t = 44) (<25%)”. The “Esterase (0.15 mg/mL) % parent released after 45 min” value in the series on Rabbit Cornea Esterase (setting [2]) is “C (NZW) (51% to 75%)”. The “Esterase (0.45 mg/mL) % parent released after 45 min” value with Rabbit Cornea Esterase (setting [3]) is on record as “C (NZW) (51% to 75%)”.

With `CC(=O)N[C@@H](CS)C(=O)O[C@]1(C(=O)OCC#N)[C@H](C)C[C@H]2[C@@H]3C[C@H](F)C4=CC(=O)C=C[C@]4(C)[C@@]3(F)[C@@H](O)C[C@@]21C` [Compound 73B, Cyanomethyl (6S,8S,9R,10S,11S,13S,14S,16R,17R)-17-((acetyl-L-cysteinyl)oxy)-6,9-difluoro-11-hydroxy-10,13,16-trimethyl-3-oxo-6,7,8,9,10,11,12,13,14,15,16,17dodecahydro-3H-cyclopenta[a]phenanthrene-17-carboxylate], the “Esterase (0.15 mg/mL) % parent released after 45 min” value in the series with Rabbit Cornea Esterase (Table 13, rabbit cornea homogenate 0.15 mg/mL, rabbit breed not given) was “A (<25%)”. The “Esterase (0.45 mg/mL) % parent released after 45 min” value with Rabbit Cornea Esterase (Table 13, rabbit cornea homogenate 0.45 mg/mL, rabbit breed not given) is on record as “A (<25%)”.

As for `CC(C)C(=O)OC(C)n1ccc2c(-c3cnn([C@H](CC#N)C4CCCC4)c3)ncnc21` (stereo partly shown) [Compound 48], the “Esterase (0.15 mg/mL) % parent released after 45 min” value in the series on Rabbit Cornea Esterase (setting [2]) is on record as “A (NZW) (<25%)”. Besides, the “Esterase (0.45 mg/mL) % parent released after 45 min” value in the series on Rabbit Cornea Esterase (setting [3]) was “A (NZW) (<25%)”.

Turning to `C=CC(=O)N1C[C@H](Nc2ncnc3c2ccn3C(C)OC(=O)OC(C)C)CC[C@@H]1C` (stereo partly shown) [Compound 22], the “Esterase (0.15 mg/mL) % parent released after 45 min” value in the series on Rabbit Cornea Esterase (setting [2]) is on record as “D (NZW) (>75%)”. In addition, in the series with Rabbit Cornea Esterase (setting [3]), the “Esterase (0.45 mg/mL) % parent released after 45 min” value is on record as “D (NZW) (>75%)”.

Regarding `CC(C)C(=O)n1ccc2c(-c3cnn([C@H](CC#N)C4CCCC4)c3)ncnc21` [Compound 49], the “Esterase (0.15 mg/mL) % parent released after 45 min” value in the series with Rabbit Cornea Esterase (setting [2]) is given as “D NZW) (>75%)”. Further, the “Esterase (0.45 mg/mL) % parent released after 45 min” value in the series on Rabbit Cornea Esterase (setting [3]) is listed as “D (NZW) (>75%)”.

In the case of `C[C@]12C=CC(=O)C=C1CC[C@@H]1[C@@H]2[C@@H](O)C[C@@]2(C)[C@H]1CC[C@]2(OC(=O)CCCC[C@@H]1CCSS1)C(=O)OCCl` [Compound 59], the “Aqueous Stability (DPBS) T1/2 after t min” value in series [1] (t = 45) turned out to be 31.6 min. Besides, the “Esterase (0.9 mg/mL) T1/2 (45 min)” value in the series with Rabbit Cornea Esterase (rabbit cornea homogenate 0.9 mg/mL, NZW, 37° C.) is on record as 22.6 (NZW) min. The “Esterase (2.0 mg/mL) T1/2 (45 min)” value in the series on Rabbit Cornea Esterase (rabbit cornea homogenate 2.0 mg/mL, NZW, 37° C.) was 21.3 (NZW) min.

Regarding `C=CC(=O)N1C[C@H](Nc2ncnc3c2ccn3C(=O)OC(C)C)CC[C@@H]1C` [Compound 23], the “Esterase (0.15 mg/mL) % parent released after 45 min” value in the series with Rabbit Cornea Esterase (setting [2]) is on record as “A (NZW) (<25%)”. Besides, the “Esterase (0.45 mg/mL) % parent released after 45 min” value with Rabbit Cornea Esterase (setting [3]) was “A (NZW) (<25%)”.

In the case of `N#CC[C@@H](C1CCCC1)n1cc(-c2ncnc3c2ccn3COC(=O)CCCC[C@@H]2CCSS2)cn1` [Compound 40], the “Aqueous Stability (DPBS) % parent released after t min” value in series [1] (t = 45) is “A (t = 45) (<25%)”. In addition, in the series on Rabbit Cornea Esterase (setting [2]), the “Esterase (0.15 mg/mL) % parent released after 45 min” value is reported as “D (NZW) (>75%)”. For the same compound, in the series on Rabbit Cornea Esterase (setting [3]), the “Esterase (0.45 mg/mL) % parent released after 45 min” value is “D (NZW) (>75%)”.

For `CC(OC(=O)CCCC[C@@H]1CCSS1)n1ccc2c(-c3cnn([C@H](CC#N)C4CCCC4)c3)ncnc21` (stereo partly shown) [Compound 38], the “Aqueous Stability (DPBS) % parent released after t min” value in series [1] (t = 48) was “A (t = 48) (<25%)”. Besides, the “Esterase (0.15 mg/mL) % parent released after 45 min” value in the series with Rabbit Cornea Esterase (setting [2]) is “B (NZW) (25% to 50%)”. The “Esterase (0.45 mg/mL) % parent released after 45 min” value in the series with Rabbit Cornea Esterase (setting [3]) was “C (NZW) (51% to 75%)”.

Consider `CC(C)OC(=O)n1ccc2c(-c3cnn([C@H](CC#N)C4CCCC4)c3)ncnc21` [Compound 51], for which the “Aqueous Stability (DPBS) % parent released after t min” value in series [1] (t = 45) is recorded as “A (t = 45) (<25%)”. Besides, the “Esterase (0.15 mg/mL) % parent released after 45 min” value in the series with Rabbit Cornea Esterase (setting [4]) is listed as “A (DB) (<25%)”. Moreover, in the series on Rabbit Cornea Esterase (setting [5]), the “Esterase (0.45 mg/mL) % parent released after 45 min” value is on record as “B (DB) (25% to 50%)”.

For `CC(C)OC(=O)OC(C)n1ccc2c(-c3cnn([C@H](CC#N)C4CCCC4)c3)ncnc21` (stereo partly shown) [Compound 50], the “Aqueous Stability (DPBS) % parent released after t min” value in series [1] (t = 44) is “B (t = 44) (25% to 50%)”. Besides, in the series with Rabbit Cornea Esterase (setting [4]), the “Esterase (0.15 mg/mL) % parent released after 45 min” value is recorded as “D (DB) (>75%)”. For the same compound, the “Esterase (0.45 mg/mL) % parent released after 45 min” value with Rabbit Cornea Esterase (setting [5]) is “D (DB) (>75%)”.

Turning to `N#CC[C@@H](C1CCCC1)n1cc(-c2ncnc3c2ccn3C(=O)CCCC[C@@H]2CCSS2)cn1` [Compound 39], in series [1] (t = 45), the “Aqueous Stability (DPBS) % parent released after t min” value was “B (t = 45) (25% to 50%)”. The “Esterase (0.15 mg/mL) % parent released after 45 min” value with Rabbit Cornea Esterase (setting [2]) is on record as “B (NZW) (25% to 50%)”. Besides, the “Esterase (0.45 mg/mL) % parent released after 45 min” value in the series on Rabbit Cornea Esterase (setting [3]) is “C (NZW) (51% to 75%)”.
